# “And” between values parts separate entries of the source, which are not always exact repeats. Identical values can stand only once.
# System: HL60 (human promyelocytic leukemia) cells
# Test: LMA-FlexMAP analysis of microtiter well cultures of HL60 cells treated with tretinoin or DMSO, KNN classification
# [1] = HL60 cells treated with tretinoin, Experiment 3, replicate samples
# [2] = HL60 microtiter plate wells tretinoin40-47 (replicates)
compound,measurement,setting,value
"CC1=C(/C=C/C(C)=C/C=C/C(C)=C/C(=O)O)C(C)(C)CCC1 [tretinoin, all-trans-retinoic acid]","FlexMap signal, ACTB (LUA#91)",[1],2538 and 2604.5 and 452 and 812 and 1191 and 2112.5 and 2760 and 2845 and 2391 and 144.5
same,"FlexMap signal, GAPDH_3 (LUA#95)",[1],2330.5 and 2534 and 579 and 1017 and 1438 and 2495.5 and 2680 and 2718 and 2148 and 172
same,"FlexMap signal, GAPDH_5 (LUA#93)",[1],1699 and 1739.5 and 261.5 and 439.5 and 741 and 1388 and 1787 and 1865 and 1714 and 97
same,"FlexMap signal, GAPDH_M (LUA#94)",[1],1342.5 and 1462 and 221.5 and 396 and 590.5 and 1179.5 and 1602 and 1586 and 1267.5 and 79
same,"FlexMap signal, NM_000147 (LUA#29)",[1],987 and 1072 and 95 and 188.5 and 323 and 713 and 1109 and 1156 and 905 and 43
same,"FlexMap signal, NM_000211 (LUA#39)",[1],1072 and 1160 and 204.5 and 356 and 501 and 939 and 1215 (2×) and 924.5 and 109
same,"FlexMap signal, NM_000250 (LUA#87)",[1],141 and 157 and 46 and 52 and 67 and 115 and 159 and 166 and 131 and 38
same,"FlexMap signal, NM_000414 (LUA#22)",[1],384 and 448 and 48 and 74 and 114 and 272.5 and 479 and 477.5 and 378 and 35
same,"FlexMap signal, NM_000433 (LUA#28)",[1],454 and 548 and 62 and 105 and 169 and 371.5 and 580.5 and 600.5 and 406 and 32
same,"FlexMap signal, NM_000584 (LUA#30)",[1],1878.5 and 1840 and 240 and 426 and 663 and 1369.5 and 1886 and 1908.5 and 1555 and 96.5
same,"FlexMap signal, NM_000884 (LUA#81)",[1],670 and 692 and 126 and 209 and 304 and 612 and 794.5 and 804 and 624 and 58
same,"FlexMap signal, NM_001034 (LUA#67)",[1],170 and 171 and 42 and 47 and 73 and 122 and 178 and 184 and 155 and 33
same,"FlexMap signal, NM_001101 (LUA#34)",[1],2622 and 2644 and 799 and 1279 and 1711 and 2759.5 and 2895 and 2880 and 2335 and 235
same,"FlexMap signal, NM_001469 (LUA#79)",[1],988.5 and 1104 and 141.5 and 246.5 and 395 and 731.5 and 1124 and 1134 and 921 and 75.5
same,"FlexMap signal, NM_001498 (LUA#18)",[1],397 and 391.5 and 40 and 71 and 121 and 262 and 386 and 382 and 279 and 30
same,"FlexMap signal, NM_001684 (LUA#23)",[1],52.5 and 60 (2×) and 30 and 31.5 and 31 and 52 and 66 and 49 and 25
same,"FlexMap signal, NM_001948 (LUA#84)",[1],63 and 62 and 34 and 38 (2×) and 50 and 61 and 59 and 54 and 33
same,"FlexMap signal, NM_002166 (LUA#25)",[1],169.5 and 207 and 37 and 51 and 74 and 132 and 188.5 and 211 and 170 and 29
same,"FlexMap signal, NM_002467 (LUA#90)",[1],571 and 552.5 and 136 and 162 and 239 and 409.5 and 576 and 644 and 527 and 86
same,"FlexMap signal, NM_002468 (LUA#40)",[1],367 and 421 and 57.5 and 93 and 132.5 and 303 and 450 and 473.5 and 357 and 36.5
same,"FlexMap signal, NM_002539 (LUA#74)",[1],276 and 278.5 and 46 and 74 and 209 and 271 and 323.5 and 225 and 36
same,"FlexMap signal, NM_002624 (LUA#36)",[1],1359 and 1343 and 253.5 and 500 and 700.5 and 1234 and 1402 and 1395 and 1167.5 and 79
same,"FlexMap signal, NM_002664 (LUA#38)",[1],1922 and 1934 and 383 and 702 and 1051.5 and 1832 and 2052 and 2064 and 1635.5 and 101
same,"FlexMap signal, NM_002970 (LUA#42)",[1],1316 and 1443 and 164 and 329 and 528 and 1106 and 1508 and 1570.5 and 1247 and 57
same,"FlexMap signal, NM_002982 (LUA#45)",[1],3449 and 3440 and 1175 and 1759 and 2328 and 3359 and 3548 and 3612.5 and 3101 and 373
same,"FlexMap signal, NM_003132 (LUA#68)",[1],431 and 428 and 74 and 117.5 and 194 and 367 and 461 and 482 and 344 and 38
same,"FlexMap signal, NM_003172 (LUA#19)",[1],208 and 227 and 45 and 68 and 97 and 199 and 234 and 250 and 179 and 33
same,"FlexMap signal, NM_003332 (LUA#43)",[1],2312 and 2346.5 and 591 and 1003 and 1446 and 2239 and 2492 and 2467 and 2041 and 177.5
same,"FlexMap signal, NM_003581 (LUA#62)",[1],40.5 and 39.5 and 40 (2×) and 36 and 42 and 47 and 46.5 and 46 and 33
same,"FlexMap signal, NM_003644 (LUA#17)",[1],181.5 and 53 and 72 and 75.5 and 220 and 238.5 and 179 and 39
same,"FlexMap signal, NM_003752 (LUA#82)",[1],116 and 113 and 54 (2×) and 66 and 93 and 105 and 123 and 96 and 41
same,"FlexMap signal, NM_003879 (LUA#24)",[1],65 and 69 and 23 and 29 and 36 and 51 and 77 and 76 and 59 and 34
same,"FlexMap signal, NM_004079 (LUA#21)",[1],113 and 124 (2×) and 34 and 41 and 53 and 88 and 122 and 121 and 30
same,"FlexMap signal, NM_004095 (LUA#59)",[1],169 and 205 and 46 and 66 and 86.5 and 166.5 and 221 and 208.5 and 147 and 36
same,"FlexMap signal, NM_004106 (LUA#44)",[1],1458 and 1423 and 235 and 457 and 672 and 1276 and 1500 and 1506 and 1234 and 68
same,"FlexMap signal, NM_004134 (LUA#76)",[1],268 and 286 and 47.5 and 67 and 93 and 182 and 284 and 297 and 240 and 36
same,"FlexMap signal, NM_004152 (LUA#31)",[1],1845 and 1993 and 319 and 601 and 837 and 1645 and 2020 and 2157.5 and 1685 and 90.5
same,"FlexMap signal, NM_004526 (LUA#88)",[1],153.5 and 172 and 43 and 61 and 76.5 and 187.5 and 191 and 138 and 37
same,"FlexMap signal, NM_004602 (LUA#32)",[1],255 and 274.5 and 61 and 87.5 and 116 and 185 and 270 and 293 and 288 and 46
same,"FlexMap signal, NM_004723 (LUA#20)",[1],281 and 329 and 61 and 105 and 151 and 271.5 and 350 and 352 and 258 and 37
same,"FlexMap signal, NM_004741 (LUA#89)",[1],397 and 326 and 70 and 77 and 131 and 204.5 and 315 and 415.5 and 300.5 and 58
same,"FlexMap signal, NM_004759 (LUA#37)",[1],242 and 139.5 and 32 and 41 and 60 and 119 and 132.5 and 213 and 159 and 28
same,"FlexMap signal, NM_005008 (LUA#77)",[1],242 and 301.5 and 53.5 and 87 and 114 and 239.5 and 315 and 316 and 232 and 41
same,"FlexMap signal, NM_005375 (LUA#86)",[1],548 and 553 and 131 and 196 and 334 and 547.5 and 602 and 531 and 86
same,"FlexMap signal, NM_005566 (LUA#85)",[1],539.5 and 610.5 and 89 and 117 and 183 and 197.5 and 597 and 632 and 489 and 45
same,"FlexMap signal, NM_005914 (LUA#60)",[1],525.5 and 804.5 and 102 and 218.5 and 314 and 594 and 914 and 889 and 716.5 and 44
same,"FlexMap signal, NM_005915 (LUA#72)",[1],46 and 42 and 25 and 27 and 30 and 35 and 40 and 37 and 38 and 29
same,"FlexMap signal, NM_005952 (LUA#66)",[1],204 and 199 and 43 and 56 and 74 and 143 and 200 and 197.5 and 156 and 34
same,"FlexMap signal, NM_005980 (LUA#73)",[1],160 and 157 (2×) and 32 and 43 and 52 and 102.5 and 166 and 132 and 34
same,"FlexMap signal, NM_006019 (LUA#35)",[1],810 and 792 and 73 and 140 and 227 and 497 and 747 and 787.5 and 655 and 34
same,"FlexMap signal, NM_006138 (LUA#56)",[1],87 and 95 and 37 and 40 and 49 and 67 and 97 and 102.5 and 86 and 38
same,"FlexMap signal, NM_006432 (LUA#27)",[1],1364 and 1394 and 190 and 358.5 and 574 and 1118 and 1397.5 and 1403 and 1160 and 68
same,"FlexMap signal, NM_006452 (LUA#71)",[1],52 and 60 and 25 and 37 and 37.5 and 43 and 57 and 71 and 44 and 23.5
same,"FlexMap signal, NM_006985 (LUA#58)",[1],48 and 59 (2×) and 31 and 32 and 37.5 and 45.5 and 52 and 46.5 and 30
same,"FlexMap signal, NM_007282 (LUA#16)",[1],46 and 62.5 and 27 and 29 and 30 and 42 and 53 and 61.5 and 58 and 28
same,"FlexMap signal, NM_014333 (LUA#26)",[1],613 and 656.5 and 74 and 128 and 211 and 427 and 674 and 705 and 572 and 41
same,"FlexMap signal, NM_014366 (LUA#61)",[1],217 and 294 and 38 and 61 and 89.5 and 191 and 291.5 and 299.5 and 235 and 33.5
same,"FlexMap signal, NM_014573 (LUA#70)",[1],138.5 and 144.5 and 40 and 45 and 56 and 93 and 156 and 161.5 and 123 and 38.5
same,"FlexMap signal, NM_015201 (LUA#57)",[1],208 and 198 and 40 and 49 and 64 and 139 and 197 and 228 and 156 and 31
same,"FlexMap signal, NM_018115 (LUA#63)",[1],1217 and 860.5 and 109.5 and 234 and 409 and 710.5 and 896 and 1206.5 and 927 and 61
same,"FlexMap signal, NM_018164 (LUA#69)",[1],148.5 and 149 and 37 and 46 and 67 and 139 and 150 and 156.5 and 133 and 36
same,"FlexMap signal, NM_018256 (LUA#83)",[1],638.5 and 688.5 and 178.5 and 177 and 268 and 371 and 633 and 804.5 and 779 and 151
same,"FlexMap signal, NM_018890 (LUA#33)",[1],737 and 769 and 82 and 151.5 and 240 and 534.5 and 760 and 762 and 652 and 41
same,"FlexMap signal, NM_019058 (LUA#75)",[1],102 and 129 and 37 and 48 and 56 and 90 and 126 and 97 and 34
same,"FlexMap signal, NM_020117 (LUA#78)",[1],487 and 502 and 65 and 114 and 184 and 371 and 519 and 543 and 415 and 45
same,"FlexMap signal, NM_021103 (LUA#41)",[1],629 and 2096 and 467.5 and 781.5 and 992 and 1953 and 2465.5 and 2408 and 495 and 142
same,"FlexMap signal, NM_021203 (LUA#80)",[1],445.5 and 471 and 65 and 109 and 165 and 355 and 480 and 514 and 369 and 46
same,"FlexMap signal, NM_021974 (LUA#64)",[1],776 and 891 and 136.5 and 255.5 and 403 and 781.5 and 929 and 940 and 667.5 and 55
same,"FlexMap signal, NM_024045 (LUA#65)",[1],112 and 127.5 and 35 and 40 and 57 and 92.5 and 135.5 and 110 and 29
same,"FlexMap signal, TFRC (LUA#92)",[1],252 and 255 and 54 and 66 and 90 and 168 and 256 and 272 and 213 and 45
same,ACTB LUA#91 FlexMap level,[2],344 and 2113 and 2976 and 3020 and 2200 and 2601 and 2521 and 1195
same,GAPDH_3 LUA#95 FlexMap level,[2],1659 and 3754 and 4065 and 4240 and 3880 and 3379 and 3353.5 and 1707.5
same,GAPDH_5 LUA#93 FlexMap level,[2],238 and 1501 and 2205.5 and 2064 and 1482 and 1768.5 and 1737 and 843
same,GAPDH_M LUA#94 FlexMap level,[2],642 and 3318 and 3783.5 and 3886 and 3205 and 3303 and 3248 and 1513
same,NM_000070 LUA#2 FlexMap level,[2],84.5 and 400 and 756 and 769.5 and 717.5 and 638.5 and 741 and 490.5
same,NM_000147 LUA#29 FlexMap level,[2],48 and 184 and 276.5 and 330.5 and 274 and 275 and 318 and 288
same,NM_000153 LUA#10 FlexMap level,[2],35 and 90 and 138 (2×) and 150 and 120 and 171.5 and 223
same,NM_000211 LUA#39 FlexMap level,[2],81 and 598.5 and 1229 and 1162.5 and 868 and 1061 and 973 and 440.5
same,NM_000250 LUA#87 FlexMap level,[2],261.5 and 1504 and 2135 and 2243 and 1820 and 2094 and 1863 and 1124
same,NM_000414 LUA#22 FlexMap level,[2],79.5 and 477 and 902 and 920 and 503 and 800 and 838 and 646
same,NM_000433 LUA#28 FlexMap level,[2],53 and 234 and 451.5 and 466 and 318 and 421 and 370.5 and 244.5
same,NM_000584 LUA#30 FlexMap level,[2],45 and 189 and 470 and 461 and 435 and 379 and 597 and 352
same,NM_000632 LUA#12 FlexMap level,[2],60 and 298 and 544 and 994 and 932 and 486 and 500 and 525.5
